pIC50: −log10 of the molar value.
What follows are compounds tested on Calu-6 human lung cancer cells (assay: Cell proliferation-inhibiting activity, Calu-6 (CellTiter-Glo, ATP in viable cells)). Settings: Calu-6, 96 h, Table 3, 4 days culture.
Assay type: cell-based
Description: (§1) The cell proliferation-inhibiting activity of the compounds listed in Table 3 below was evaluated by measuring the amount of ATP in viable cells as described below.
(§2) The test compound was serially diluted with DMSO and then diluted 25-fold with Ca^2+, Mg^2+-free phosphate-buffered saline, and was then dispensed into a 96-well plate at 5 μL per well. A cell suspension containing the below indicated concentration of A549, Calu-6 or NCI-H2122 human lung cancer cells (all obtained from ATCC) was prepared using the below indicated medium with the addition of 10% fetal bovine serum (Sigma). The cell suspension was dispensed into the test compound-added plate at 95 μL per well and cultured in a 5% carbon dioxide gas incubator at 37° C. After 4 days, 80 μL of CellTiter-Glo (registered trademark) (Promega Corp.) was added to each well and the bioluminescence was measured with a fluorescent plate reader.
Calu-6: Eagle's Minimum Essential Medium (Sigma); 4000 cells/95 μL
`CCNS(=O)(=O)Nc1nccc(Cc2cc(C(N)=O)c(Nc3ccc(I)cc3F)cc2F)c1F` [1-2, 5-[[2-(Ethylsulfamoylamino)-3-fluoropyridin-4-yl]methyl]-4-fluoro-2-(2-fluoro-4-iodoanilino)benzamide] gave a pIC50 of 6.99.
`CCS(=O)(=O)Nc1nccc(Cc2cc(C(N)=O)c(Nc3ccc(I)cc3F)c(F)c2F)c1F` [A-38, 5-[[2-(Ethylsulfonylamino)-3-fluoropyridin-4-yl]methyl]-3,4-difluoro-2-(2-fluoro-4-iodoanilino)benzamide] was tested, and the pIC50 was 6.91.
Compound `CC1(NS(=O)(=O)Nc2nccc(Cc3cc(C(=O)NC4CC4)c(Nc4ccc(I)cc4F)c(F)c3F)c2F)CCC1` [A-47, N-Cyclopropyl-3,4-difluoro-2-(2-fluoro-4-iodoanilino)-5-[[3-fluoro-2-[(1-methylcyclobutyl)sulfamoylamino]pyridin-4-yl]methyl]benzamide] has a pIC50 of 6.98.
`CCCS(=O)(=O)Nc1nccc(Cc2cc(C(N)=O)c(Nc3ccc(I)cc3F)c(F)c2F)c1F` [B-8, 3,4-Difluoro-2-(2-fluoro-4-iodoanilino)-5-[[3-fluoro-2-(propylsulfonylamino)pyridin-4-yl]methyl]benzamide] gave a pIC50 of 6.63.
`CCS(=O)(=O)Nc1cccc(Cc2cc(C(=O)NC3CC3)c(Nc3ccc(I)cc3F)c(F)c2F)c1F` [D-8, N-Cyclopropyl-5-[[3-(ethylsulfonylamino)-2-fluorophenyl]methyl]-3,4-difluoro-2-(2-fluoro-4-iodoanilino)benzamide] gave a pIC50 of 6.95.
Work on `CC1(NS(=O)(=O)Nc2cccc(Cc3cc(C(=O)NC4CC4)c(Nc4ccc(I)cc4F)c(F)c3F)c2F)CCC1` [D-10, N-Cyclopropyl-3,4-difluoro-2-(2-fluoro-4-iodoanilino)-5-[[2-fluoro-3-[(1-methylcyclobutyl)sulfamoylamino]phenyl]methyl]benzamide] yielded a pIC50 of 6.51.
`NC(=O)c1cc(Cc2cccc(NS(=O)(=O)CCCF)c2F)c(F)c(F)c1Nc1ccc(I)cc1F` [E-15, 3,4-Difluoro-5-[[2-fluoro-3-(3-fluoropropylsulfonylamino)phenyl]methyl]-2-(2-fluoro-4-iodoanilino)benzamide] showed a pIC50 of 6.82.
With `CCCS(=O)(=O)Nc1cccc(Cc2cc(C(N)=O)c(Nc3ccc(I)cc3F)c(F)c2F)c1F` [E-18, 3,4-Difluoro-2-(2-fluoro-4-iodoanilino)-5-[[2-fluoro-3-(propylsulfonylamino)phenyl]methyl]benzamide] the pIC50 was 6.91.
`NC(=O)c1cc(Cc2cccc(NS(=O)(=O)C3CCC3)c2F)c(F)c(F)c1Nc1ccc(I)cc1F` [E-20, 5-[[3-(Cyclobulsulfonylamino)-2-fluorophenyl]methyl]-3,4-difluoro-2-(2-fluoro-4-iodoanilino)benzamide] was tested, and the pIC50 was 6.99.
With `NC(=O)c1cc(Cc2cccc(NS(=O)(=O)C3COC3)c2F)c(F)c(F)c1Nc1ccc(I)cc1F` [E-21, 3,4-Difluoro-2-(2-fluoro-4-iodoanilino)-5-[[2-fluoro-3-(oxetan-3-ylsulfonylamino)phenyl]methyl]benzamide] the pIC50 was 6.96.
In the case of `COCCS(=O)(=O)Nc1cccc(Cc2cc(C(N)=O)c(Nc3ccc(I)cc3F)c(F)c2F)c1` [F-3, 3,4-Difluoro-2-(2-fluoro-4-iodoanilino)-5-[[3-(2-methoxyethylsulfonylamino)phenyl]methyl]benzamide], the pIC50 was 6.93.
In the case of `CNS(=O)(=O)Nc1nccc(Cc2cc(C(=O)NOC)c(Nc3ccc(Cl)cc3F)c(F)c2F)c1F` [G-4, 2-(4-Chloro-2-fluoroanilino)-3,4-difluoro-5-[[3-fluoro-2-(methylsulfamoylamino)pyridin-4-yl]methyl]-N-methoxybenzamide], the pIC50 was 6.59.
Compound `CCS(=O)(=O)Nc1nccc(Cc2cc(C(=O)NC3CC3)c(Nc3ccc(C4CC4)cc3F)c(F)c2F)c1F` [G-7, N-Cyclopropyl-2-(4-cyclopropyl-2-fluoroanilino)-5-[[2-(ethylsulfonylamino)-3-fluoropyridin-4-yl]methyl]-3,4-difluorobenzamide] has a pIC50 of 6.35.
Compound `COCCNS(=O)(=O)Nc1nccc(Cc2cc(C(=O)NOC)c(Nc3ccc(I)cc3F)n(C)c2=O)c1F` [J-9, 2-(2-Fluoro-4-iodoanilino)-5-[[3-fluoro-2-(2-methoxyethylsulfamoylamino)pyridin-4-yl]methyl]-N-methoxy-1-methyl-6-oxopyridine-3-carboxamide] has a pIC50 of 6.63.
For `CCS(=O)(=O)Nc1cc(Cc2cc(C(N)=O)c(Nc3ccc(I)cc3F)n(C)c2=O)ccn1` [J-12, 5-[[2-(Ethylsulfonylamino)pyridin-4-yl]methyl]-2-(2-fluoro-4-iodoanilino)-1-methyl-6-oxopyridine-3-carboxamide], the pIC50 was 6.33.
For `Cn1c(Nc2ccc(I)cc2F)c(C(N)=O)cc(Cc2ccnc(NS(=O)(=O)NC3(C)CCC3)c2F)c1=O` [J-15, 2-(2-Fluoro-4-iodoanilino)-5-[[3-fluoro-2-[(1-methylcyclobutyl)sulfamoylamino]pyridin-4-yl]methyl]-1-methyl-6-oxopyridine-3-carboxamide], the pIC50 was 6.55.
Compound `CCS(=O)(=O)Nc1cccc(Cc2cc(C(=O)NC3CC3)c(Nc3ccc(I)cc3F)n(C)c2=O)c1F` [K-8, N-Cyclopropyl-5-[[3-(ethylsulfonylamino)-2-fluorophenyl]methyl]-2-(2-fluoro-4-iodoanilino)-1-methyl-6-oxopyridine-3-carboxamide] has a pIC50 of 6.91.
`Cc1c(Nc2ccc(I)cc2F)c(C(N)=O)cn(Cc2ccnc(NS(=O)(=O)NC3(C)CCC3)c2F)c1=O` [P-3, 4-(2-Fluoro-4-iodoanilino)-1-[[3-fluoro-2-[(1-methylcyclobutyl)sulfamoylamino]pyridin-4-yl]methyl]-5-methyl-6-oxopyridine-3-carboxamide] showed a pIC50 of 6.65.
`CCS(=O)(=O)Nc1nccc(Cn2cc(C(=O)NOC)c(Nc3ccc(I)cc3F)c(C)c2=O)c1F` [P-5, 1-[[2-(ethylsulfonylamino)-3-fluoropyridin-4-yl]methyl]-4-(2-fluoro-4-iodoanilino)-N-methoxy-5-methyl-6-oxopyridine-3-carboxamide] was tested, and the pIC50 was 6.35.

Each compound was assayed on A549 human lung cancer cells (assay: Cell proliferation-inhibiting activity, A549 (CellTiter-Glo, ATP in viable cells)). Settings: A549, 96 h, Table 3, 4 days culture.
Assay type: cell-based
Description: as §1, §2
A549: Dulbecco's Modified Eagle's Medium (Sigma); 2000 cells/95 μL
In the case of `COCCNS(=O)(=O)Nc1nccc(Cc2cc(C(N)=O)c(Nc3ccc(I)cc3F)cc2F)c1F` [1-4, 4-Fluoro-2-(2-fluoro-4-iodoanilino)-5-[[3-fluoro-2-(2-methoxyethylsulfamoylamino)pyridin-4-yl]methyl]benzamide], the pIC50 was 6.35.
For `COCCNS(=O)(=O)Nc1nccc(Cc2cc(C(N)=O)c(Nc3ccc(I)cc3F)n(C)c2=O)c1F` [J-2, 2-(2-Fluoro-4-iodoanilino)-5-[[3-fluoro-2-(2-methoxyethylsulfamoylamino)pyridin-4-yl]methyl]-1-methyl-6-oxopyridine-3-carboxamide], the pIC50 was 6.45.
With `COCCNS(=O)(=O)Nc1nccc(Cc2cc(C(=O)NC3CC3)c(Nc3ccc(I)cc3F)n(C)c2=O)c1F` [J-7, N-Cyclopropyl-2-(2-fluoro-4-iodoanilino)-5-[[3-fluoro-2-(2-methoxyethylsulfamoylamino)pyridin-4-yl]methyl]-1-methyl-6-oxopyridine-3-carboxamide] the pIC50 was 7.00.
In the case of `COCCNS(=O)(=O)Nc1nccc(Cc2cc(C(=O)NOC)c(Nc3ccc(I)cc3F)n(C)c2=O)c1F` [J-9, 2-(2-Fluoro-4-iodoanilino)-5-[[3-fluoro-2-(2-methoxyethylsulfamoylamino)pyridin-4-yl]methyl]-N-methoxy-1-methyl-6-oxopyridine-3-carboxamide], the pIC50 was 6.78.
`CCS(=O)(=O)Nc1cc(Cc2cc(C(N)=O)c(Nc3ccc(I)cc3F)n(C)c2=O)ccn1` [J-12, 5-[[2-(Ethylsulfonylamino)pyridin-4-yl]methyl]-2-(2-fluoro-4-iodoanilino)-1-methyl-6-oxopyridine-3-carboxamide] gave a pIC50 of 6.65.
Compound `CCCNS(=O)(=O)Nc1nccc(Cn2cc(C(N)=O)c(Nc3ccc(I)cc3F)c(F)c2=O)c1F` [N-2, 5-fluoro-4-(2-fluoro-4-iodoanilino)-1-[[3-fluoro-2-(propylsulfamoylamino)pyridin-4-yl]methyl]-6-oxopyridine-3-carboxamide] has a pIC50 of 6.71.

Source: US11964950B2, “Arylamide derivative having antitumor activity” (priority 2020, dated 2024)
